Experimental data as given in patent US12466821B2 (Novartis AG, priority 2018, dated 2025).

Biological target: human CMV DNA polymerase UL54 (Human cytomegalovirus (strain AD169) (HHV-5) (Human herpesvirus 5), UniProt P08546)
Assay: CMV polymerase biochemical assay (molecular beacon-based)
In short: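 Readout was beacon fluorescence (ex 480, em 535 nm), used to derive IC50. Each dNTP was at 1.25 uM, with 200 nM primer and 100 nM beacon, after a 30-min RT inhibitor preincubation. Enzyme was 625 pM for HSV UL30 (20 min RT reaction) or 100 pM for CMV UL54 (60 min RT), both sf9-expressed MBP fusions, in pH 7.5 Tris buffer with MgCl2.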

N#Cc1ccc(CNC(=O)c2ccc3n(c2=O)CCN(CC2(S(=O)(=O)C4CC4)CC2)C3=O)cc1 [Example 1, N-(4-cyanobenzyl)-2-((1-(cyclopropylsulfonyl)cyclopropyl)methyl)-1,6-dioxo-2,3,4,6-tetrahydro-1H-pyrido[1,2-a]pyrazine-7-carboxamide]
IC50: 0.8 nM
